Measured values from publication PMC12951562, “SH2scan: Mapping SH2 Domain-Ligand Binding Selectivity for Inhibitors and Degraders” (Journal of Medicinal Chemistry, 2026).
Non-standard residues stand in square brackets, D forms with d. Residues, ends and D or L forms follow the SMILES beside them. pY = N[C@@H](Cc1ccc(OP(=O)(O)O)cc1)C(=O)O

Legend:
Test in all cases: biochemical
Type in all cases: binding
PLCG2(SH2dom.C-term.) = target: T1, PLCG2(SH2dom.C-term.) (Homo sapiens, UniProt P16885)
T1 construct: SH2dom.C-term. denotes SH2 domain closest to C-terminus of protein; made in house; host or cells: HEK293 (transient transfection, unpurified extract)
T1 sequence (P16885 646-735 limits assumed): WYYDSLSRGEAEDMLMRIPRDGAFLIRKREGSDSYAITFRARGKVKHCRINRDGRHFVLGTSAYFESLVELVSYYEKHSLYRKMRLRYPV

SHF = target: T2, SHF (Homo sapiens, UniProt Q7M4L6)
T2 construct: made in house; host or cells: HEK293 (transient transfection), unpurified extract
T2 sequence (Q7M4L6 1-423): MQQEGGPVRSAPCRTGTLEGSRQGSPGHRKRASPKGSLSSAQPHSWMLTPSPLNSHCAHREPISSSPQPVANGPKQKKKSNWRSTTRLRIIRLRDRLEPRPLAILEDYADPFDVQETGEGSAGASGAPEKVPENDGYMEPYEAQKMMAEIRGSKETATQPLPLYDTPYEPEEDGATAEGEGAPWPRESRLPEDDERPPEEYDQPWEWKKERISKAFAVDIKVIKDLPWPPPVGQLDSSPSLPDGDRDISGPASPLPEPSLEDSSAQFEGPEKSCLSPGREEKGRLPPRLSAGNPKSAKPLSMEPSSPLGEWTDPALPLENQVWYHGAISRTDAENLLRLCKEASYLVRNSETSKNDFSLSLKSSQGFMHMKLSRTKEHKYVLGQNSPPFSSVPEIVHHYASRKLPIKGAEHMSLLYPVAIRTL

SHC2 = target: T3, SHC2 (Homo sapiens, UniProt P98077)
T3 construct: made in house; host or cells: HEK293 (transient transfection), unpurified extract
T3 sequence (P98077 1-582): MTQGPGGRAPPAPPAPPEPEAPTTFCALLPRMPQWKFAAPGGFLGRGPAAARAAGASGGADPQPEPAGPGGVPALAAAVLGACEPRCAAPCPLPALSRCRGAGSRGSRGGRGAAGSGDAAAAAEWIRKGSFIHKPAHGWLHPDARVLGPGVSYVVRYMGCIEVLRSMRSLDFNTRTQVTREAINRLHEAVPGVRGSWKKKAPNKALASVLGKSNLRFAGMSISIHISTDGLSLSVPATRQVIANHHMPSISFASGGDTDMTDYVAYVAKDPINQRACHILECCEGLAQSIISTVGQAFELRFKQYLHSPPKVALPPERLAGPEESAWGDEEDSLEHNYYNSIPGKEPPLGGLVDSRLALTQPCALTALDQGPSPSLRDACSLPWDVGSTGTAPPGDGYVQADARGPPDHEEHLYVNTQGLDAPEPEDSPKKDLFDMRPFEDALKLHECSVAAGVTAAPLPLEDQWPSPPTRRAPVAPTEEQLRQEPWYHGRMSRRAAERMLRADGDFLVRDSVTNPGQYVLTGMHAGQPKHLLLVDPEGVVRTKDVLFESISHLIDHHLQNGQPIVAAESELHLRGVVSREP

SHC1 = target: T4, SHC1 (Homo sapiens, UniProt P29353)
T4 construct: made in house; host or cells: HEK293 (transient transfection), unpurified extract
T4 sequence (P29353 1-583): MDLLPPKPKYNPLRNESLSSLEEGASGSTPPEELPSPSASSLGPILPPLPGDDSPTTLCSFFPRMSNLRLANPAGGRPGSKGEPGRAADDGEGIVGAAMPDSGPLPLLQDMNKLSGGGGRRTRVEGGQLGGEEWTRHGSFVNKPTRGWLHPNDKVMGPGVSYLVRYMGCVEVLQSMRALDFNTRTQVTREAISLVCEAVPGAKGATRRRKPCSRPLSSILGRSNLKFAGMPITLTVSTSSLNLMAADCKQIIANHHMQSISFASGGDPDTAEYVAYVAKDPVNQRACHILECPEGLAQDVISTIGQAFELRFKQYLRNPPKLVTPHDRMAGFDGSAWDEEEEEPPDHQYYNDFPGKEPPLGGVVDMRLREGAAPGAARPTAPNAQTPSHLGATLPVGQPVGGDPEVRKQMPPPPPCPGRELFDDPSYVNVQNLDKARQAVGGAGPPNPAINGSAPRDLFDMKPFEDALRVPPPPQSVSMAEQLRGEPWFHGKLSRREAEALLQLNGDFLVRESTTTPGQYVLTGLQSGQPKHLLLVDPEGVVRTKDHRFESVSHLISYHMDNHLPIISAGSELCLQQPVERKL

SHC3 = target: T5, SHC3 (Homo sapiens, UniProt Q92529)
T5 construct: made in house; host or cells: HEK293 (transient transfection), unpurified extract
T5 sequence (Q92529 1-594): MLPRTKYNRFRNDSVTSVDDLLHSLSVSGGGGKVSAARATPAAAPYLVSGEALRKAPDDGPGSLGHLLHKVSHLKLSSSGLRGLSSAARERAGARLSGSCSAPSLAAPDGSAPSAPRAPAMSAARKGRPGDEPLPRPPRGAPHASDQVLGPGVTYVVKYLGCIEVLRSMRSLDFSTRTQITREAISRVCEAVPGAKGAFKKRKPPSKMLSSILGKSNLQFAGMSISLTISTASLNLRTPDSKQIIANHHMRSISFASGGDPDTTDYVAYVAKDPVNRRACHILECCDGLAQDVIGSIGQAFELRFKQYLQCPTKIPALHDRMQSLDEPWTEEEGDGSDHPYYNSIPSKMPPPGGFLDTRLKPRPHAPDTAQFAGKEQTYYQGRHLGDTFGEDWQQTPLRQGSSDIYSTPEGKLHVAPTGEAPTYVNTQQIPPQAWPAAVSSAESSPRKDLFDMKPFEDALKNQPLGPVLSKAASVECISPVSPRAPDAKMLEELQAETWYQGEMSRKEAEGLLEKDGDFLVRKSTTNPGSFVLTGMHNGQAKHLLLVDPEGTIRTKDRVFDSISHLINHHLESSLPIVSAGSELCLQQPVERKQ

SHC4 = target: T6, SHC4 (Homo sapiens, UniProt Q6S5L8)
T6 construct: made in house; host or cells: HEK293 (transient transfection), unpurified extract
T6 sequence (Q6S5L8 1-630): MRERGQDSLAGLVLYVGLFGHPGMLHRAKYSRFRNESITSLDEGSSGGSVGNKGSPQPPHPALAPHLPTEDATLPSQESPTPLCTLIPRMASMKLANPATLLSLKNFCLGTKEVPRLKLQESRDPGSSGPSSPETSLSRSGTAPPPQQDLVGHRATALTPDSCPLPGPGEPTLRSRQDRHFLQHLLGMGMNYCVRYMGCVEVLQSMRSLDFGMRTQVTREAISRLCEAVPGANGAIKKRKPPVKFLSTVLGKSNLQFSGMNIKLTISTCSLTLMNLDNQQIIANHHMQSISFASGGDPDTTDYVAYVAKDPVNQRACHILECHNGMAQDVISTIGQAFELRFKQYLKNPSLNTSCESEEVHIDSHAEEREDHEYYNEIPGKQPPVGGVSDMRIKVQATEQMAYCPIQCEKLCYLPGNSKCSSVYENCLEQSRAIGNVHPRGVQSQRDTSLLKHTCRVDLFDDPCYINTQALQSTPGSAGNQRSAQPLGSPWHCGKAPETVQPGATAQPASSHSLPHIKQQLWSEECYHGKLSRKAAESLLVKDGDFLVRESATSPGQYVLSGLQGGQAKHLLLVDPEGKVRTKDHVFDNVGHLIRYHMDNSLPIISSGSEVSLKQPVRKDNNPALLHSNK

SOCS6 = target: T7, SOCS6 (Homo sapiens, UniProt O14544)
T7 construct: made in house; host or cells: HEK293 (transient transfection), unpurified extract
T7 sequence (O14544 1-535): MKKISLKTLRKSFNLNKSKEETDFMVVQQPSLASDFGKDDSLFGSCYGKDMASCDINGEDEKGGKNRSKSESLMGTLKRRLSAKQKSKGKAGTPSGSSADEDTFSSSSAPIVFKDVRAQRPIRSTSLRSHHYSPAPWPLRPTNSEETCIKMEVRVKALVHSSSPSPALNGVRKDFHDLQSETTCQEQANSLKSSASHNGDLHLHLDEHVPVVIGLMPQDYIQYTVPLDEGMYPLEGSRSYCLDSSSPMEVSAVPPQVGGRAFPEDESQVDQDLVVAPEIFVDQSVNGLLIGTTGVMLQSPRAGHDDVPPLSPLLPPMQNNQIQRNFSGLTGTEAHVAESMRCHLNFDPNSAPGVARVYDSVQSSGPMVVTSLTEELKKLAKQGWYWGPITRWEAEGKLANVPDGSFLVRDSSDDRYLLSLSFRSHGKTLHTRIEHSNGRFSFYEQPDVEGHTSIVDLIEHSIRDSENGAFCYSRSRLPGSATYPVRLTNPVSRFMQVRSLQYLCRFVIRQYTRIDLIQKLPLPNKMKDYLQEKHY

SOCS2 = target: T8, SOCS2 (Homo sapiens, UniProt O14508)
T8 construct: made in house; host or cells: HEK293 (transient transfection), unpurified extract
T8 sequence (O14508 1-198): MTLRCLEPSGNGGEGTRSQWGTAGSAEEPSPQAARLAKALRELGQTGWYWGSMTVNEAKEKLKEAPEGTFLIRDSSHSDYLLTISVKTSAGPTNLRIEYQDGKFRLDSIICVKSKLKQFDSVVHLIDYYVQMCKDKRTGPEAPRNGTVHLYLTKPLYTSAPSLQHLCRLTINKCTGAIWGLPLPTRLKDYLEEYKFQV

SOCS7 = target: T9, SOCS7 (Homo sapiens, UniProt O14512)
T9 construct: made in house; host or cells: HEK293 (transient transfection), unpurified extract
T9 sequence (O14512 1-581): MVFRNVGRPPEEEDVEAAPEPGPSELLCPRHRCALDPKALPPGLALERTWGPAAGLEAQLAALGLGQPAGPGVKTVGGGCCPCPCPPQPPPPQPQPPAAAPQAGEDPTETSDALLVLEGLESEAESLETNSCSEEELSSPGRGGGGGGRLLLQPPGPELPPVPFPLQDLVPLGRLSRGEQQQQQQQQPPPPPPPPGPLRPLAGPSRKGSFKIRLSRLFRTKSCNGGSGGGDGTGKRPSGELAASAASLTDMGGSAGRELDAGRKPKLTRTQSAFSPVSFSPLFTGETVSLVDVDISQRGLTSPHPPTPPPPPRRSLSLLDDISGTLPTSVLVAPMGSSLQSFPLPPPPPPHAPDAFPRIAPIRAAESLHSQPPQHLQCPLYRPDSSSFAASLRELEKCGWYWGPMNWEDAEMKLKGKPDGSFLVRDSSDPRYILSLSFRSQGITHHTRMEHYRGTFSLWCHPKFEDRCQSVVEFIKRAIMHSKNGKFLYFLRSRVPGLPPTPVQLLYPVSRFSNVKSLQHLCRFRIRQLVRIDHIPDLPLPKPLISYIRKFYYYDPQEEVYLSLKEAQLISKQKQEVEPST

CC[C@H](C)[C@H](NC(=O)[C@@H](NC(=O)[C@H](Cc1ccc(OP(=O)(O)O)cc1)NC(=O)[C@H](CO)NC(=O)[C@H](CCCNC(=N)N)NC(=O)[C@@H](NC(=O)[C@H](CO)NC(=O)[C@H](CCC(=O)O)NC(=O)[C@H](CCCCN)NC(=O)[C@H](CCCCN)NC(=O)[C@H](CCCCN)NC(=O)[C@H](CCCCN)NC(C)=O)[C@@H](C)O)C(C)C)C(=O)N[C@@H](CC(C)C)C(=O)N[C@@H](CO)C(=O)N[C@@H](Cc1ccccc1)C(=O)N[C@@H](CCC(=O)O)C(=O)N[C@@H](CC(N)=O)C(=O)N[C@@H](CC(N)=O)C(=O)NCC(N)=O (Ac-KKKKESTRS[pY]VILSFENNG-NH2)
Kd (PLCG2(SH2dom.C-term.)): 0.0109 ± 0.00709 µM | Kd (SHF): 1.47 ± 0.88 µM

CC(=O)N[C@@H](CCC(=O)O)C(=O)N[C@@H](CC(N)=O)C(=O)N[C@@H](C)C(=O)N[C@@H](CCC(=O)O)C(=O)N[C@@H](Cc1ccc(OP(=O)(O)O)cc1)C(=O)N[C@@H](CC(C)C)C(=O)N[C@@H](CCCNC(=N)N)C(=O)N[C@H](C(=O)N[C@@H](C)C(N)=O)C(C)C [Ac-ENAEpYLRVA-NH2] (Ac-ENAE[pY]LRVA-NH2)
Kd (SHC2): 4.39 ± 0.413 µM | Kd (SHC1): 11 ± 1.26 µM | Kd (SHC3): 3.78 ± 0.472 µM | Kd (SHC4): 6.63 ± 0.773 µM

CC[C@H](C)[C@H](NC(=O)[C@H](Cc1ccc(O)cc1)NC(=O)[C@@H](NC(=O)[C@H](Cc1ccc(OP(=O)(O)O)cc1)NC(=O)[C@H](CC(N)=O)NC(=O)[C@H](CC(N)=O)NC(=O)CNC(=O)[C@H](CC(N)=O)NC(C)=O)C(C)C)C(=O)N[C@@H](CC(=O)O)C(=O)N1CCC[C@H]1C(=O)N[C@H](C(N)=O)[C@@H](C)O [Ac-NGNNpYVYIDPT-NH2]
Kd (SOCS6): 0.0206 ± 0.00433 µM | Kd (SOCS2): 4.2 ± 0.739 µM | Kd (SOCS7): 11.7 ± 0.822 µM
